Literature values in US20230030915A1, “Pet Food Compositions” (Hill's Pet Nutrition, Inc., priority 2019, published 2023).

System: piglets

maximum supplementation rate at which safe (via feed): 2 000 mg/kg complete feed
SMILES: C[N+](C)(C)CC(=O)O [Betaine, Glycine betaine]
margin of safety (at 2 000 mg/kg complete feed): below 5
